In PubChem BioAssay AID192 (DTP/NCI, 2004):
“And” between values parts separate entries of the source, which are not always exact repeats. Equal entries are not always repeated. Inconclusive results and toxic doses are left out.

System: BDF1 mice, B16 melanoma ip, median survival T/C
Assay: NCI In Vivo Anticancer Drug Screen. Data for tumor model B16 Melanoma (intraperitoneal) in B6D2F1 (BDF1) mice
Details: endpoint: median survival time, higher = longer survival
Method in brief: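 Compounds were tested in mice carrying transplantable tumors. Survival or tumor size was recorded, and each value is the treated-group measurement (T) divided by that of the vehicle-treated control group (C).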

Structure (SMILES): CC(C)[C@](O)(C(=O)OCC1=CC[N+]2([O-])CC[C@@H](O)[C@@H]12)[C@H](C)O (stereo not given in full)
- T/C (dose: 12.5 mg/kg/injection, schedule: Q01DX009 (ip), vehicle: water): 105 % of control
- T/C (dose: 16.0 mg/kg/injection, schedule: Q03HX008 (ip), vehicle: water): 93 % of control
- T/C (dose: 16.0 mg/kg/injection, schedule: Q03HX016 (ip), vehicle: water): 96 % of control
- T/C (dose: 16.0 mg/kg/injection, schedule: Q03HX024 (ip), vehicle: water): 96 % of control
- T/C (dose: 25.0 mg/kg/injection, schedule: Q01DX009 (ip), vehicle: water): 117 % of control
- T/C (dose: 32.0 mg/kg/injection, schedule: Q03HX008 (ip), vehicle: water): 99 % of control
- T/C (dose: 32.0 mg/kg/injection, schedule: Q03HX016 (ip), vehicle: water): 94 % of control
- T/C (dose: 32.0 mg/kg/injection, schedule: Q03HX024 (ip), vehicle: water): 100 % of control
- T/C (dose: 64.0 mg/kg/injection, schedule: Q01DX009 (ip), vehicle: saline): 113 % of control
- T/C (dose: 64.0 mg/kg/injection, schedule: Q01DX009 (ip), vehicle: water): 103 % of control
- T/C (dose: 64.0 mg/kg/injection, schedule: Q03HX008 (ip), vehicle: water): 108 % of control
- T/C (dose: 64.0 mg/kg/injection, schedule: Q03HX016 (ip), vehicle: water): 108 % of control
- T/C (dose: 64.0 mg/kg/injection, schedule: Q03HX024 (ip), vehicle: water): 120 % of control
- T/C (dose: 100.0 mg/kg/injection, schedule: Q01DX009 (ip), vehicle: saline sonified): 104 % of control
- T/C (dose: 128.0 mg/kg/injection, schedule: Q01DX001 (ip), vehicle: water): 103 % of control
- T/C (dose: 128.0 mg/kg/injection, schedule: Q01DX009 (ip), vehicle: saline): 113 % of control
- T/C (dose: 128.0 mg/kg/injection, schedule: Q01DX009 (ip), vehicle: water): 119 % of control
- T/C (dose: 128.0 mg/kg/injection, schedule: Q01DX009 (oral), vehicle: water): 95 % of control and 101 % of control
- T/C (dose: 128.0 mg/kg/injection, schedule: Q03HX008 (ip), vehicle: water): 123 % of control
- T/C (dose: 128.0 mg/kg/injection, schedule: Q04DX003 (ip), vehicle: water): 102 % of control
- T/C (dose: 128.0 mg/kg/injection, schedule: Q08DX002 (ip), vehicle: water): 105 % of control
- T/C (dose: 228.0 mg/kg/injection, schedule: Q01DX009 (ip), vehicle: saline): 119 % of control
- T/C (dose: 256.0 mg/kg/injection, schedule: Q01DX009 (oral), vehicle: water): 93 % of control and 96 % of control
- T/C (dose: 256.0 mg/kg/injection, schedule: Q03HX016 (ip), vehicle: water): 150 % of control
- T/C (dose: 256.0 mg/kg/injection, schedule: Q04DX003 (ip), vehicle: water): 106 % of control
- T/C (dose: 256.0 mg/kg/injection, schedule: Q08DX002 (ip), vehicle: water): 118 % of control
- T/C (dose: 512.0 mg/kg/injection, schedule: Q01DX001 (ip), vehicle: water): 113 % of control
- T/C (dose: 512.0 mg/kg/injection, schedule: Q01DX009 (ip), vehicle: water): 150 % of control and 182 % of control
- T/C (dose: 512.0 mg/kg/injection, schedule: Q01DX009 (oral), vehicle: water): 94 % of control and 95 % of control
- T/C (dose: 512.0 mg/kg/injection, schedule: Q08DX002 (ip), vehicle: water): 123 % of control
- T/C (dose: 600.0 mg/kg/injection, schedule: Q01DX009 (ip), vehicle: water): 163 % of control
- T/C (dose: 768.0 mg/kg/injection, schedule: Q01DX009 (ip), vehicle: saline): 100 % of control
- T/C (dose: 800.0 mg/kg/injection, schedule: Q01DX009 (ip), vehicle: saline sonified): 150 % of control
- T/C (dose: 1024.0 mg/kg/injection, schedule: Q01DX009 (oral), vehicle: water): 97 % of control and 99 % of control
- T/C (dose: 2048.0 mg/kg/injection, schedule: Q08DX002 (ip), vehicle: water): 169 % of control

Structure (SMILES): CCCCCCCCCCCCCCCC[N+](C)(C)C
- T/C (dose: 0.5 mg/kg/injection, schedule: Q04DX003 (ip), vehicle: saline): 95 % of control
- T/C (dose: 1.0 mg/kg/injection, schedule: Q01DX009 (ip), vehicle: saline): 93 % of control
- T/C (dose: 1.0 mg/kg/injection, schedule: Q04DX003 (ip), vehicle: saline): 95 % of control
- T/C (dose: 1.25 mg/kg/injection, schedule: Q01DX009 (ip), vehicle: saline with Tween-80): 102 % of control
- T/C (dose: 2.0 mg/kg/injection, schedule: Q01DX009 (ip), vehicle: saline): 93 % of control
- T/C (dose: 2.0 mg/kg/injection, schedule: Q04DX003 (ip), vehicle: saline): 95 % of control
- T/C (dose: 2.5 mg/kg/injection, schedule: Q01DX009 (ip), vehicle: saline with Tween-80): 107 % of control
- T/C (dose: 2.75 mg/kg/injection, schedule: Q01DX009 (ip), vehicle: saline): 93 % of control
- T/C (dose: 4.0 mg/kg/injection, schedule: Q01DX009 (ip), vehicle: saline): 91 % of control
- T/C (dose: 5.0 mg/kg/injection, schedule: Q01DX009 (ip), vehicle: saline with Tween-80): 91 % of control
- T/C (dose: 5.5 mg/kg/injection, schedule: Q01DX009 (ip), vehicle: saline): 93 % of control

Structure (SMILES): CC(C)(C)OC(=O)NCCCCC(NC(=O)OCc1ccccc1)C(=O)ON1C(=O)CCC1=O (stereo not given)
- T/C (dose: 50.0 mg/kg/injection, schedule: Q01DX009 (ip), vehicle: saline with Tween-80): 98 % of control
- T/C (dose: 100.0 mg/kg/injection, schedule: Q01DX009 (ip), vehicle: saline with Tween-80): 92 % of control
- T/C (dose: 200.0 mg/kg/injection, schedule: Q01DX009 (ip), vehicle: saline with Tween-80): 87 % of control

Structure (SMILES): N#CC(c1ccccc1)N1CCCCC1 (stereo not given)
- T/C (dose: 50.0 mg/kg/injection, schedule: Q01DX009 (ip), vehicle: Klucel (hydroxypropylcellulose) (HPC)): 93 % of control
- T/C (dose: 100.0 mg/kg/injection, schedule: Q01DX009 (ip), vehicle: Klucel (hydroxypropylcellulose) (HPC)): 90 % of control

Structure (SMILES): O=C1NC(c2ccccc2)C(=O)N1CCN(CCCl)CCCl (stereo not given)
- T/C (dose: 1.56 mg/kg/injection, schedule: Q01DX009 (ip), vehicle: saline): 89 % of control and 109 % of control
- T/C (dose: 3.12 mg/kg/injection, schedule: Q01DX009 (ip), vehicle: saline): 95 % of control and 114 % of control
- T/C (dose: 6.25 mg/kg/injection, schedule: Q01DX009 (ip), vehicle: saline): 123 % of control
- T/C (dose: 25.0 mg/kg/injection, schedule: Q01DX009 (ip), vehicle: saline): 115 % of control

Structure (SMILES): NCCN1CCc2ccccc2C1
- T/C (dose: 6.25 mg/kg/injection, schedule: Q04DX003 (ip), vehicle: saline): 113 % of control
- T/C (dose: 12.5 mg/kg/injection, schedule: Q04DX003 (ip), vehicle: saline): 110 % of control
- T/C (dose: 16.5 mg/kg/injection, schedule: Q04DX003 (ip), vehicle: saline): 112 % of control
- T/C (dose: 25.0 mg/kg/injection, schedule: Q04DX003 (ip), vehicle: saline): 112 % of control and 115 % of control
- T/C (dose: 37.5 mg/kg/injection, schedule: Q04DX003 (ip), vehicle: saline): 110 % of control

Structure (SMILES): CC#CC#C/C=C1\OC2(CCCCO2)C(O)C1OC(=O)CC(C)C (stereo not given)
- T/C (dose: 10.0 mg/kg/injection, schedule: Q01DX009 (ip), vehicle: Klucel (hydroxypropylcellulose) (HPC)): 103 % of control
- T/C (dose: 20.0 mg/kg/injection, schedule: Q01DX009 (ip), vehicle: Klucel (hydroxypropylcellulose) (HPC)): 103 % of control
- T/C (dose: 40.0 mg/kg/injection, schedule: Q01DX009 (ip), vehicle: Klucel (hydroxypropylcellulose) (HPC)): 94 % of control

Structure (SMILES): CC[C@@H]1O[C@H]2O[C@@H](/C=C/C=C/C=C/c3oc(=O)cc(OC)c3C)[C@@H](O)[C@@]2(C)[C@]1(C)O
- T/C (dose: 0.5 mg/kg/injection, schedule: Q01DX009 (ip), vehicle: Klucel (hydroxypropylcellulose) (HPC)): 94 % of control
- T/C (dose: 1.0 mg/kg/injection, schedule: Q01DX009 (ip), vehicle: Klucel (hydroxypropylcellulose) (HPC)): 90 % of control
- T/C (dose: 2.0 mg/kg/injection, schedule: Q01DX009 (ip), vehicle: Klucel (hydroxypropylcellulose) (HPC)): 92 % of control

Structure (SMILES): CN(C)CC/C=C1\c2ccccc2Sc2ccc(Cl)cc21
- T/C (dose: 0.12 mg/kg/injection, schedule: Q01DX009 (ip), vehicle: Klucel (hydroxypropylcellulose) (HPC)): 95 % of control
- T/C (dose: 0.24 mg/kg/injection, schedule: Q01DX009 (ip), vehicle: Klucel (hydroxypropylcellulose) (HPC)): 86 % of control
- T/C (dose: 0.48 mg/kg/injection, schedule: Q01DX009 (ip), vehicle: Klucel (hydroxypropylcellulose) (HPC)): 88 % of control
- T/C (dose: 1.95 mg/kg/injection, schedule: Q01DX009 (ip), vehicle: Klucel (hydroxypropylcellulose) (HPC)): 86 % of control
- T/C (dose: 7.0 micrograms/kg/injection, schedule: Q01DX009 (ip), vehicle: Klucel (hydroxypropylcellulose) (HPC)): 105 % of control
- T/C (dose: 15.0 micrograms/kg/injection, schedule: Q01DX009 (ip), vehicle: Klucel (hydroxypropylcellulose) (HPC)): 107 % of control
- T/C (dose: 30.0 micrograms/kg/injection, schedule: Q01DX009 (ip), vehicle: Klucel (hydroxypropylcellulose) (HPC)): 105 % of control
- T/C (dose: 60.0 micrograms/kg/injection, schedule: Q01DX009 (ip), vehicle: Klucel (hydroxypropylcellulose) (HPC)): 105 % of control
- T/C (dose: 120.0 micrograms/kg/injection, schedule: Q01DX009 (ip), vehicle: Klucel (hydroxypropylcellulose) (HPC)): 98 % of control
